According to PMC10608817, “Extending the Affinity Range of Weak Affinity Chromatography for the Identification of Weak Ligands Targeting Membrane Proteins” (Molecules, 2023):

Target: T1, Adenosine-A2A Receptor (AA2AR) (Homo sapiens, UniProt P29274)
T1 construct: gene ADORA2A; human AA2AR N-terminally fused to the flag and decahistidine tags, in nanodiscs
Assay: biochemical
Type: binding

T1 sequence (P29274 whole entry, the tested form may be a part): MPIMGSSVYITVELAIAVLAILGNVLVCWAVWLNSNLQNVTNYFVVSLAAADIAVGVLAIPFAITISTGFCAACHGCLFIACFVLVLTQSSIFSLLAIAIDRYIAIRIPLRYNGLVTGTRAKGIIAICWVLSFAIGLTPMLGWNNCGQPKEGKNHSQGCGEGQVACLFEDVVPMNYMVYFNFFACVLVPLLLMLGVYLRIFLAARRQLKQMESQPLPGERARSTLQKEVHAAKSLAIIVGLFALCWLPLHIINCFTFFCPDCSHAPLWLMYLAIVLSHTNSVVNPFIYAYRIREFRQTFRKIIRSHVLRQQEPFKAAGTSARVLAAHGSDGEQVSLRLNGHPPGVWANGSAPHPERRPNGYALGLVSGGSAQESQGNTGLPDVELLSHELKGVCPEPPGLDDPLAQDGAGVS

Kd | SMILES
210 µM | COc1ccc2[nH]ccc2n1 [F468, 5-methoxy-1H-pyrrolo[3,2-b]pyridine]
190 µM | COc1cc2cc[nH]c2cn1 [F469, 5-methoxy-1H-pyrrolo[2,3-c]pyridine]
